In the supplement of paper PMC10307832:

Columns and labels:
Test in all cases: relative viability (nuclei count vs DMSO), 5 days (fraction); higher = more cells survive
A-427 = system: A-427
Summary of the method: (§1)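 Values are medians from duplicate plates. Each reflects relative viability, defined as the nuclei count of treated wells over that of vehicle wells. Lung cancer cell lines in 1536-well plates were pin-tool dosed one day after seeding with one drug alone or with a fixed anchor-drug dose plus five library-drug doses (not always all listed) in √10 steps, then fixed, stained and imaged at 4× after 5 days.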

HCC-15 = system: HCC-15
Summary of the method: as §1

HCC-78 = system: HCC-78
Summary of the method: as §1

HOP-62 = system: HOP-62
Summary of the method: as §1

LC-2-ad = system: LC-2-ad
Summary of the method: as §1

LOU-NH91 = system: LOU-NH91
Summary of the method: as §1

LXF-289 = system: LXF-289
Summary of the method: as §1

NCI-H1734 = system: NCI-H1734
Summary of the method: as §1

NCI-H1755 = system: NCI-H1755
Summary of the method: as §1

NCI-H1792 = system: NCI-H1792
Summary of the method: as §1

NCI-H1915 = system: NCI-H1915
Summary of the method: as §1

NCI-H1975 = system: NCI-H1975
Summary of the method: as §1

NCI-H2126 = system: NCI-H2126
Summary of the method: as §1

NCI-H2228 = system: NCI-H2228
Summary of the method: as §1

NCI-H2342 = system: NCI-H2342
Summary of the method: as §1

NCI-H2347 = system: NCI-H2347
Summary of the method: as §1

NCI-H358 = system: NCI-H358
Summary of the method: as §1

NCI-H460 = system: NCI-H460
Summary of the method: as §1

NCI-H522 = system: NCI-H522
Summary of the method: as §1

NCI-H647 = system: NCI-H647
Summary of the method: as §1

PC-3 [JPC-3] = system: PC-3 [JPC-3]
Summary of the method: as §1

RERF-LC-KJ = system: RERF-LC-KJ
Summary of the method: as §1

SK-LU-1 = system: SK-LU-1
Summary of the method: as §1

SW 1573 = system: SW 1573
Summary of the method: as §1

C[C@@H]1CN(CC(=O)Nc2ccc3c(c2)Cc2cccc(-c4cc(=O)cc(N5CCOCC5)o4)c2S3)C[C@H](C)O1 + CC(=O)Nc1cccc(-n2c(=O)n(C3CC3)c(=O)c3c(Nc4ccc(I)cc4F)n(C)c(=O)c(C)c32)c1 [Trametinib] (partner 0.02 µM)
relative viability (A-427; first compound 0.04 µM): 0.682
relative viability (A-427; first compound 0.1265 µM): 0.755
relative viability (A-427; first compound 0.4 µM): 0.678
relative viability (A-427; first compound 4 µM): 0.583
relative viability (HCC-15; first compound 0.04 µM): 0.374
relative viability (HCC-15; first compound 0.1265 µM): 0.331
relative viability (HCC-15; first compound 0.4 µM): 0.308
relative viability (HCC-15; first compound 4 µM): 0.348
relative viability (HCC-78; first compound 0.04 µM): 0.713
relative viability (HCC-78; first compound 0.1265 µM): 0.751
relative viability (HCC-78; first compound 0.4 µM): 0.859
relative viability (HCC-78; first compound 4 µM): 0.711
relative viability (HOP-62; first compound 0.04 µM): 0.4
relative viability (HOP-62; first compound 0.1265 µM): 0.374
relative viability (HOP-62; first compound 0.4 µM): 0.297
relative viability (HOP-62; first compound 4 µM): 0.313
relative viability (LC-2-ad; first compound 0.04 µM): 0.897
relative viability (LC-2-ad; first compound 0.1265 µM): 0.867
relative viability (LC-2-ad; first compound 0.4 µM): 0.892
relative viability (LC-2-ad; first compound 4 µM): 0.854
relative viability (LOU-NH91; first compound 0.04 µM): 0.812
relative viability (LOU-NH91; first compound 0.1265 µM): 0.788
relative viability (LOU-NH91; first compound 0.4 µM): 0.717
relative viability (LOU-NH91; first compound 4 µM): 0.715
relative viability (LXF-289; first compound 0.04 µM): 0.653
relative viability (LXF-289; first compound 0.1265 µM): 0.682
relative viability (LXF-289; first compound 0.4 µM): 0.658
relative viability (LXF-289; first compound 4 µM): 0.676
relative viability (NCI-H1734; first compound 0.04 µM): 0.698
relative viability (NCI-H1734; first compound 0.1265 µM): 0.756
relative viability (NCI-H1734; first compound 0.4 µM): 0.632
relative viability (NCI-H1734; first compound 4 µM): 0.788
relative viability (NCI-H1755; first compound 0.04 µM): 0.779
relative viability (NCI-H1755; first compound 0.1265 µM): 0.737
relative viability (NCI-H1755; first compound 0.4 µM): 0.716
relative viability (NCI-H1755; first compound 4 µM): 0.663
relative viability (NCI-H1792; first compound 0.04 µM): 0.422
relative viability (NCI-H1792; first compound 0.1265 µM): 0.444
relative viability (NCI-H1792; first compound 0.4 µM): 0.295
relative viability (NCI-H1792; first compound 4 µM): 0.385
relative viability (NCI-H1915; first compound 0.04 µM): 0.299
relative viability (NCI-H1915; first compound 0.1265 µM): 0.291
relative viability (NCI-H1915; first compound 0.4 µM): 0.284
relative viability (NCI-H1915; first compound 4 µM): 0.294
relative viability (NCI-H1975; first compound 0.04 µM): 0.382
relative viability (NCI-H1975; first compound 0.1265 µM): 0.377
relative viability (NCI-H1975; first compound 0.4 µM): 0.37
relative viability (NCI-H1975; first compound 4 µM): 0.33
relative viability (NCI-H2126; first compound 0.04 µM): 0.558
relative viability (NCI-H2126; first compound 0.1265 µM): 0.573
relative viability (NCI-H2126; first compound 0.4 µM): 0.561
relative viability (NCI-H2126; first compound 4 µM): 0.557
relative viability (NCI-H2228; first compound 0.04 µM): 0.575
relative viability (NCI-H2228; first compound 0.1265 µM): 0.547
relative viability (NCI-H2228; first compound 0.4 µM): 0.536
relative viability (NCI-H2228; first compound 4 µM): 0.421
relative viability (NCI-H2342; first compound 0.04 µM): 0.806
relative viability (NCI-H2342; first compound 0.1265 µM): 0.743
relative viability (NCI-H2342; first compound 0.4 µM): 0.818
relative viability (NCI-H2342; first compound 4 µM): 0.721
relative viability (NCI-H2347; first compound 0.04 µM): 0.273
relative viability (NCI-H2347; first compound 0.1265 µM): 0.331
relative viability (NCI-H2347; first compound 0.4 µM): 0.319
relative viability (NCI-H2347; first compound 4 µM): 0.238
relative viability (NCI-H358; first compound 0.04 µM): 0.131
relative viability (NCI-H358; first compound 0.1265 µM): 0.121
relative viability (NCI-H358; first compound 0.4 µM): 0.12
relative viability (NCI-H358; first compound 4 µM): 0.112
relative viability (NCI-H460; first compound 0.04 µM): 0.155
relative viability (NCI-H460; first compound 0.1265 µM): 0.131
relative viability (NCI-H460; first compound 0.4 µM): 0.13
relative viability (NCI-H460; first compound 4 µM): 0.0347
relative viability (NCI-H522; first compound 0.04 µM): 0.737
relative viability (NCI-H522; first compound 0.1265 µM): 0.749
relative viability (NCI-H522; first compound 0.4 µM): 0.724
relative viability (NCI-H522; first compound 4 µM): 0.816
relative viability (NCI-H647; first compound 0.04 µM): 0.565
relative viability (NCI-H647; first compound 0.1265 µM): 0.415
relative viability (NCI-H647; first compound 0.4 µM): 0.414
relative viability (NCI-H647; first compound 4 µM): 0.251
relative viability (PC-3 [JPC-3]; first compound 0.04 µM): 0.808
relative viability (PC-3 [JPC-3]; first compound 0.1265 µM): 0.665
relative viability (PC-3 [JPC-3]; first compound 0.4 µM): 0.666
relative viability (PC-3 [JPC-3]; first compound 4 µM): 0.634
relative viability (RERF-LC-KJ; first compound 0.04 µM): 0.874
relative viability (RERF-LC-KJ; first compound 0.1265 µM): 0.796
relative viability (RERF-LC-KJ; first compound 0.4 µM): 0.757
relative viability (RERF-LC-KJ; first compound 4 µM): 0.695
relative viability (SK-LU-1; first compound 0.04 µM): 0.518
relative viability (SK-LU-1; first compound 0.1265 µM): 0.454
relative viability (SK-LU-1; first compound 0.4 µM): 0.477
relative viability (SK-LU-1; first compound 4 µM): 0.447
relative viability (SW 1573; first compound 0.04 µM): 0.646
relative viability (SW 1573; first compound 0.1265 µM): 0.564
relative viability (SW 1573; first compound 0.4 µM): 0.572
relative viability (SW 1573; first compound 4 µM): 0.627
